Laboratory results from ChEMBL document CHEMBL1201862, “PubChem BioAssay data set” (2004).
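Five concentrations, 48 hours, 96-well plates. GI50 is the concentration that inhibits growth by half.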 Active and inactive are the calls of the source. Rule as the data show it: active = GI50 up to about 1.1 µM and inactive = higher.

What was measured:
Experiment in all cases: DTP human tumour cell line panel, 48 h
[1] = system: SF-539
[2] = system: T47D
[3] = system: LOX IMVI
[4] = system: NCI-H522
[5] = system: HL-60
[6] = system: MDA-MB-231
[7] = system: HCC 2998
[8] = system: NCI/ADR-RES
[9] = system: SF-268
[10] = system: EKVX
[11] = system: Hs-578T
[12] = system: OVCAR-5
[13] = system: DU-145
[14] = system: U-251
[15] = system: M14
[16] = system: COLO 205
[17] = system: SK-MEL-5
[18] = system: Malme-3M
[19] = system: SK-MEL-2
[20] = system: OVCAR-8

Measured: GI50

CC(=O)N(CN1C(=O)CCC1C(=O)O)c1cccc(O)c1 (configuration not stated)
inactive: [1] > 100 µM | [2] > 100 µM | [3] > 100 µM | [4] > 100 µM | [5] > 100 µM | [6] > 100 µM | [7] > 100 µM | [8] > 100 µM | [9] > 100 µM | [10] > 100 µM | [11] > 100 µM | [12] > 100 µM | [13] > 100 µM | [14] > 100 µM | [15] > 100 µM | [16] > 100 µM | [17] > 100 µM | [18] > 100 µM | [19] > 100 µM | [20] > 100 µM

COC1CC(OC2OC(CO)C(O)C(O)C2O)/C(=C\C#N)C(O)C1OC (configuration not stated)
inactive: [1] > 100 µM | [2] > 100 µM | [3] > 100 µM | [4] > 100 µM | [5] > 100 µM | [6] > 100 µM | [7] > 100 µM | [8] > 100 µM | [9] > 100 µM | [10] > 100 µM | [11] > 100 µM | [12] > 100 µM | [13] > 100 µM | [14] > 100 µM | [15] > 100 µM | [16] > 100 µM | [17] > 100 µM | [18] > 100 µM | [19] > 100 µM | [20] > 100 µM

CSc1c(C(=O)Nc2ccc(C)cc2)c(N)n(N)c(=O)c1C#N
inactive: [1] > 100 µM | [2] > 100 µM | [3] > 100 µM | [4] > 100 µM | [5] > 100 µM | [6] > 100 µM | [7] > 100 µM | [8] > 100 µM | [9] > 100 µM | [10] > 100 µM | [11] > 100 µM | [12] > 100 µM | [13] > 100 µM | [14] > 100 µM | [15] > 100 µM | [16] > 100 µM | [17] > 100 µM | [18] > 100 µM | [19] > 100 µM | [20] > 100 µM

CC(C)(C)N1Cc2ccccc2/C(=C/Sc2ccccc2)C1=O
inactive: [1] 8.57 µM | [2] 16.6 µM | [3] 2.64 µM | [4] 2.75 µM | [5] 13.5 µM | [6] 16.5 µM | [7] 18.2 µM | [8] 14.1 µM | [9] 2.44 µM | [10] 16.8 µM | [11] 16.7 µM | [12] 19.4 µM | [13] 16.9 µM | [14] 13.6 µM | [15] 8.15 µM | [16] 18.1 µM | [17] 6.9 µM | [18] 13.3 µM | [19] 15.2 µM | [20] 8.11 µM

COC(=O)C12OCC34C(CC5C(C)=CC(=O)C(O)C5(C)C3C(O)C1O)OC(=O)C(OC(=O)CC(C)C)C24 (configuration not stated)
active: [1] 0.00064 µM | [2] 0.00146 µM | [3] 0.000548 µM | [4] 0.000352 µM | [5] 0.000208 µM | [6] 0.00369 µM | [7] 0.000803 µM | [8] 0.00289 µM | [9] 0.00217 µM | [10] 0.00313 µM | [11] 0.000164 µM | [12] 0.00325 µM | [13] 0.00083 µM | [14] 0.00116 µM | [15] < 0.0381 µM | [16] 0.00237 µM | [17] 0.000624 µM | [18] 0.00126 µM | [19] 0.00281 µM | [20] 0.00206 µM

CC1C2CCC3C(O)C2(CC(O)C2(O)C1CC(O)C2(C)C)CC3(C)O (configuration not stated)
inactive: [1] > 100 µM | [2] > 100 µM | [3] > 100 µM | [4] > 100 µM | [5] > 100 µM | [6] 35.8 µM | [7] > 100 µM | [8] > 100 µM | [9] > 100 µM | [10] > 100 µM | [11] > 100 µM | [12] > 100 µM | [13] > 100 µM | [14] > 100 µM | [15] > 100 µM | [16] > 100 µM | [17] > 100 µM | [18] > 100 µM | [19] > 100 µM | [20] > 100 µM

CC(C)CC(NC(O)[BH2-][N+](C)(C)C)C(=O)NC(Cc1ccccc1)C(=O)N[C@H]1c2ccsc2/C(=N/O)[C@H]1O (some centres not stated)
inactive: [1] > 100 µM | [2] > 100 µM | [3] > 100 µM | [4] > 100 µM | [5] > 100 µM | [6] > 100 µM | [7] > 100 µM | [8] > 100 µM | [9] > 100 µM | [10] > 100 µM | [11] > 100 µM | [12] > 100 µM | [13] > 100 µM | [14] > 100 µM | [15] > 100 µM | [16] > 100 µM | [17] > 100 µM | [18] > 100 µM | [19] > 100 µM | [20] > 100 µM

COc1ccc2c(c1OC)CN1CCc3cc4c(cc3C1C2)OCO4 (configuration not stated) [TETRAHYDROBERBERINE]
inactive: [1] > 100 µM | [2] > 100 µM | [3] > 100 µM | [4] > 100 µM | [5] > 100 µM | [6] > 100 µM | [7] > 100 µM | [8] > 100 µM | [9] > 100 µM | [10] > 100 µM | [11] > 100 µM | [12] > 100 µM | [13] > 100 µM | [14] > 100 µM | [15] > 100 µM | [16] > 100 µM | [17] > 100 µM | [18] > 100 µM | [19] > 100 µM | [20] > 100 µM

COC(=O)c1c(C)cccc1C1CN=NC12Cc1cc(C)cc(C)c1C2=O (configuration not stated)
inactive: [1] 41.3 µM | [2] 30.2 µM | [3] 17 µM | [4] 9.46 µM | [5] 20 µM | [6] 12.4 µM | [7] 22.9 µM | [8] 25.2 µM | [9] 52.2 µM | [10] 39.2 µM | [11] 73.1 µM | [12] 48 µM | [13] 84.7 µM | [14] 44.7 µM | [15] 46.1 µM | [16] 17.2 µM | [17] 19.2 µM | [18] 26.2 µM | [19] 27.7 µM | [20] 54.1 µM

Oc1ccc(SCc2cc(O)c(O)c(O)c2)cc1
inactive: [1] 82.8 µM | [2] > 100 µM | [3] 35.9 µM | [4] 22 µM | [5] 34.4 µM | [6] 36.4 µM | [7] > 10 µM | [8] 19.7 µM | [9] > 100 µM | [10] > 100 µM | [11] 77.8 µM | [12] 22.4 µM | [13] 56.5 µM | [14] 37.1 µM | [15] 17.9 µM | [16] 18.7 µM | [17] 18 µM | [18] 61.5 µM | [19] 26.1 µM | [20] 21.6 µM

c1ccc2c(c1)ccn1ccc3c4ccccc4nc-3c21
inactive: [11] 1.23 µM | [19] 1.17 µM
active: [1] 0.369 µM | [2] 0.71 µM | [3] 0.366 µM | [4] 0.3 µM | [5] 0.297 µM | [6] 0.322 µM | [7] 0.191 µM | [8] 0.33 µM | [9] 0.536 µM | [10] 0.214 µM | [12] 0.475 µM | [13] 0.351 µM | [14] 0.299 µM | [15] 0.38 µM | [16] 0.222 µM | [17] 0.454 µM | [18] 0.644 µM | [20] 0.182 µM

COCOc1cc(OC)ccc1C=O
inactive: [1] 21.5 µM | [2] 44.7 µM | [3] 53 µM | [4] 27.6 µM | [5] 26.7 µM | [6] 51.3 µM | [7] 24.2 µM | [8] 17.3 µM | [9] 64.9 µM | [10] 52.1 µM | [11] 14.8 µM | [12] > 100 µM | [13] 53.3 µM | [14] 30 µM | [15] 35.2 µM | [16] 24.9 µM | [17] 27.4 µM | [18] 11.6 µM | [19] 34 µM | [20] 41.3 µM

CCCN(CCC)C(=O)c1c(Cl)c2cccnc2n2c(C)cnc12
inactive: [1] > 100 µM | [2] 11.7 µM | [3] > 100 µM | [4] > 100 µM | [5] 23.1 µM | [6] 31.8 µM | [7] 97.9 µM | [8] 50.4 µM | [9] 96.2 µM | [10] > 100 µM | [11] > 100 µM | [12] > 100 µM | [13] > 100 µM | [15] 61.2 µM | [16] 49.5 µM | [17] 37.8 µM | [18] > 100 µM | [20] > 100 µM

CC1=C(O)C(O)=C(C2=C(O)C(O)=C(C)C(=O)C2=O)C(=O)C1=O
inactive: [1] 33 µM | [2] 37.5 µM | [3] 30.6 µM | [4] 29.3 µM | [5] 42.9 µM | [6] 31.8 µM | [7] 39.1 µM | [8] 36 µM | [9] 56.9 µM | [10] > 100 µM | [11] 36.7 µM | [12] 41.6 µM | [13] 31.3 µM | [14] 40.9 µM | [15] 38.5 µM | [16] 40.7 µM | [17] 27.2 µM | [18] 20.8 µM | [20] 47.4 µM
